Experimental data reported in publication PMC4620045 (Journal of pharmacokinetics and pharmacodynamics, 2015).
Where two headings read alike, the source gives them in different places.

Assays:
[1] = Global PBPK model fitted to mouse plasma and tissue PK data; type: in vivo, mice; conditions: for Nonspecific binding (NSti): mice, model estimate
[2] = tested on: plasma proteins; conditions: cited from earlier work
[3] = monkeys; cited from earlier work
[4] = tested on: enzymes responsible for its elimination; conditions: cited from earlier work
[5] = Kidney (renal clearance CLr); fixed to reported GFR value in mice; cited from earlier work
[6] = type: in vivo, BALB/c mice; conditions: male, BALB/c, mouse, iv

## CC(C)C[C@H](NC(=O)[C@H](Cc1ccccc1)NC(=O)c1cnccn1)B(O)O [Bortezomib]
[1]; Bone
  Nonspecific binding (NSti): 1.06
[1]; Erythrocyte
  Nonspecific binding (NSti): 7.57
[1]; Kidney
  Nonspecific binding (NSti): 9.60
[1]; Liver
  Nonspecific binding (NSti): 1.54
[1]; Lung
  Nonspecific binding (NSti): 2.54
[1]; Muscle
  Nonspecific binding (NSti): 1.17
[1]; Remainder compartment
  Nonspecific binding (NSti): 96.76
[1]; Spleen
  Nonspecific binding (NSti): 3.68
[1]; male, BALB/c, mouse, liver, intravenous
  clearance: 0.0063 mL/min
[2]; fixed in PBPK model
  Plasma protein unbound fraction (fu): 0.17
[2]; linear binding at therapeutic concentrations
  Binding to plasma proteins: approximately 83%
[3]
  Renal clearance contribution to elimination: approximately 25%
[4]
  Induction or inhibition of enzymes responsible for its elimination: not an inducer or inhibitor
[5]
  clearance: 0.28 mL/min
[6]; bone, 0.25 mg/kg
  AUC(0-inf): 23.7 µM·h
  Kp: 26.9
  half-life: 277 h
[6]; bone, 1 mg/kg
  AUC(0-inf): 27.2 µM·h
  Kp: 1.4
  half-life: 173 h
[6]; kidney, 0.25 mg/kg
  AUC(0-inf): 24.7 µM·h
  half-life: 59 h
[6]; kidney, 1 mg/kg
  AUC(0-inf): 180 µM·h
  half-life: 204 h
[6]; liver, 0.25 mg/kg
  AUC(0-inf): 17 µM·h
  half-life: 69 h
[6]; liver, 1 mg/kg
  AUC(0-inf): 33.3 µM·h
  half-life: 105 h
[6]; lung, 0.25 mg/kg
  AUC(0-inf): 39.3 µM·h
  Kp: 44.7
  half-life: 178 h
[6]; lung, 1 mg/kg
  AUC(0-inf): 60.9 µM·h
  Kp: 3.1
  half-life: 133 h
[6]; muscle, 0.25 mg/kg
  AUC(0-inf): 5.7 µM·h
  Kp: 6.4
  half-life: 204 h
[6]; muscle, 1 mg/kg
  AUC(0-inf): 17.3 µM·h
  Kp: 0.9
  half-life: 112 h
[6]; plasma, 0.25 mg/kg
  AUC(0-inf): 0.9 µM·h
  Kp: 1
  half-life: 96 h
[6]; plasma, 1 mg/kg
  AUC(0-inf): 19.4 µM·h
  Kp: 1
  half-life: 267 h
[6]; spleen, 0.25 mg/kg
  AUC(0-inf): 103 µM·h
  Kp: 117
  half-life: 248 h
[6]; spleen, 1 mg/kg
  AUC(0-inf): 107 µM·h
  Kp: 5.5
  half-life: 131 h
[6]; whole blood, 0.25 mg/kg
  AUC(0-inf): 46.4 µM·h
  Kp: 52.8
  half-life: 182 h
[6]; whole blood, 1 mg/kg
  AUC(0-inf): 92 µM·h
  Kp: 4.8
  half-life: 173 h
